The values below are quoted from earlier work in US8178547B2, “Heterocyclic antiviral compounds” (Roche Palo Alto LLC, priority 2008, dated 2012).

The data set deals with HCV. As to conditions: cited from earlier work.

Take `NC(=O)c1ncn([C@@H]2O[C@H](CO)[C@@H](O)[C@H]2O)n1` [ribavirin, 1-((2R,3R,4S,5R)-3,4-Dihydroxy-5-hydroxymethyl-tetrahydro-furan-2-yl)-1H[1,2,4]triazole-3-carboxylic acid amide]: the “serum levels of HCV-RNA” value (monotherapy / sole treatment) is “does not lower serum levels of HCV-RNA”. For the same compound, the “patients with serum amino transferase levels reduced to normal” value (monotherapy) was 40%.
